Assay [1] addresses T1, HMG-CoA reductase (Homo sapiens, UniProt P04035).
T1 sequence (P04035 1-888): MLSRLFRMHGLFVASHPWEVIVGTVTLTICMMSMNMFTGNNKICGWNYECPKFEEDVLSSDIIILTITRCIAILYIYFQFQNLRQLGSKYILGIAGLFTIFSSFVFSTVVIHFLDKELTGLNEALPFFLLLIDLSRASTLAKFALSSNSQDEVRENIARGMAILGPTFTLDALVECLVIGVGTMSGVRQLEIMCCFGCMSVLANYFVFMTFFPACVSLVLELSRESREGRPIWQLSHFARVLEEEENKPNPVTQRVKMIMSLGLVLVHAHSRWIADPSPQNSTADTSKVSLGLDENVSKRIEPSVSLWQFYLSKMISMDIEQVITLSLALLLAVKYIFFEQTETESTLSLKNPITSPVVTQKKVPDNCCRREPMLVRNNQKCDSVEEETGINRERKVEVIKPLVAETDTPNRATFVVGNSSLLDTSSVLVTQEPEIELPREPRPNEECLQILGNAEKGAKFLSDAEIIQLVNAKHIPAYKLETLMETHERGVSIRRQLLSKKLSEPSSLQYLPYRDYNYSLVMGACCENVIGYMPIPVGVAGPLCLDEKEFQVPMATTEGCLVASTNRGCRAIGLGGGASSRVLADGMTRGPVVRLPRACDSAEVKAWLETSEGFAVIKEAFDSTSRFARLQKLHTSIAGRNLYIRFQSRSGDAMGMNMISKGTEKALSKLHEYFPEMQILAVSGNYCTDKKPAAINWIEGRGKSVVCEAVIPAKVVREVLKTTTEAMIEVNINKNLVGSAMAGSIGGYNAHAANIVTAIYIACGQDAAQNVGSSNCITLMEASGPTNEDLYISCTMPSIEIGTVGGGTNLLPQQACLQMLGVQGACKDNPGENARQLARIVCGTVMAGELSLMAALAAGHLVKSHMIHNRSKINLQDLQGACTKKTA
Briefly: in vitro HMG-CoA reductase inhibitory activity. It counts as biochemical. The method, then: The in vivo and in vitro biological activity of the methyl analog of simvastatin isomeric compounds of structural formulae VIIc and VIIa was carried out on a HMG-CoA reductase inhibitory model. The compounds were tested at three concentrations (10^−5, 10^−7 and 10^−9 M) for the in vitro activity.

In assay [2] the test system is (14C) cholesterol synthesis from (14C) acetate. As to the kind of experiment: in vivo inhibition of (14C) cholesterol prepared from 14C acetate in rats. The note with it: for cholesterol lowering activity (in words): in vivo. The method, then: The in vivo experiments were conducted using radiolabelled (^14C) acetate which was administered to the rats converting it into (^14C) cholesterol. This synthesis was measured by quantitating (^14C) cholesterol inhibited by HMG-CoA reductase inhibitor.

For assay [3], the target named is T1, HMG-CoA reductase. The conditions noted are these: cited from earlier work.

For the molecule `CCC(C)(C)C(=O)O[C@H]1C[C@@H](C)C=C2C=C[C@H](C)[C@H](CC[C@@H]3C[C@@H](O)[C@H](C)C(=O)O3)[C@H]21` [VIIc, 6(R)-[2-[8(S)-[[2,2-Dimethylbutanoyl]oxyl]-2(S),6(R)-dimethyl-1,2,6,7,8,8a(R)-hexahydro-1(S)-napthyl]ethyl]-3(S)-methyl,4(R)-hydroxy-3,4,5,6-tetrahydro-2H-pyran-2-one], the “% HMG-CoA reductase inhibition activity” value in assay [1] (concentration 10^-5 M) was 99%; in assay [1] (concentration 10^-7 M) it was 71%; in assay [1] (concentration 10^-9 M) it was 8%. Further, the “HMG-CoA reductase inhibitory activity (in words)” value in assay [1] (tested at 10^-5, 10^-7 and 10^-9 M) is listed as “significant HMG-CoA reductase inhibitory activity”. The figures for the “% inhibition of (14C) cholesterol prepared from 14C acetate” value in assay [2] (1 mg/kg i.p.), in assay [2] (1 mg/kg orally) and in assay [2] (5 mg/kg orally) were 8%, 0% and 57%, respectively. For the same molecule, the “cholesterol lowering activity (in words)” value in assay [2] is listed as “have cholesterol lowering activity”.

Consider `CCC(C)(C)C(=O)O[C@H]1C[C@@H](C)C=C2C=C[C@H](C)[C@H](CC[C@@H]3C[C@@H](O)CC(=O)O3)[C@H]21` [simvastatin], for which the “potency relative to mevinolin” value in assay [3] is “twice as potent as mevinolin”.

Turning to `CCC(C)(C)C(=O)O[C@H]1C[C@@H](C)C=C2C=C[C@H](C)[C@H](CC[C@@H]3C[C@@H](O)[C@@H](C)C(=O)O3)[C@H]21` [VIIa, 6(R)-[2-[8(S)-[[2,2-Dimethylbutanoyl]oxyl]-2(S),6(R)-dimethyl-1,2,6,7,8,8a(R)-hexahydro-1(S)-napthyl]ethyl]-3(R)-methyl,4(R)-hydroxy-3,4,5,6-tetrahydro-2H-pyran-2-one], the “% HMG-CoA reductase inhibition activity” value in assay [1] (concentration 10^-5 M) was determined as 100%; in assay [1] (concentration 10^-7 M), 93%; in assay [1] (concentration 10^-9 M) it was 30%. In addition, the entries for the “% inhibition of (14C) cholesterol prepared from 14C acetate” value in assay [2] (1 mg/kg i.p.), in assay [2] (1 mg/kg orally) and in assay [2] (5 mg/kg orally) were 10%, 0% and 69%, respectively. Also, the “cholesterol lowering activity (in words)” value in assay [2] is recorded as “have cholesterol lowering activity”.

The record behind these values is patent publication US6541511B1, “Methyl analogs of simvastatin as novel HMG-CoA reductase inhibitors” (Ranbaxy Laboratories Limited, priority 2001, dated 2003).
